In patent US11919901B2 (Syndax Pharmaceuticals, Inc., priority 2021, dated 2024):

Tests used:
[1] = target: hERG (Homo sapiens (Human), UniProt Q12809); assay: Patch clamp assay (hERG tail currents, whole-cell); format: cell-based; settings: hERG transfected HEK 293 cells; for hERG % Remaining 10 μM: 10 μM compound; for hERG % Remaining 30 μM: 30 μM compound
[2] = target: Menin-MLL (Homo sapiens (Human), UniProt O00255); assay: Determination of binding constants (Ki) to Menin-MLL (HTRF); settings: HTRF, 0.25 nM H-FL-Menin, 3.2 nM FITC-MLL-4-43, 24 hr incubation; for Ki: read-out: Menin-MLL Ki HTRF Assay: Ki
Menin-MLL, sequence (O00255 whole entry): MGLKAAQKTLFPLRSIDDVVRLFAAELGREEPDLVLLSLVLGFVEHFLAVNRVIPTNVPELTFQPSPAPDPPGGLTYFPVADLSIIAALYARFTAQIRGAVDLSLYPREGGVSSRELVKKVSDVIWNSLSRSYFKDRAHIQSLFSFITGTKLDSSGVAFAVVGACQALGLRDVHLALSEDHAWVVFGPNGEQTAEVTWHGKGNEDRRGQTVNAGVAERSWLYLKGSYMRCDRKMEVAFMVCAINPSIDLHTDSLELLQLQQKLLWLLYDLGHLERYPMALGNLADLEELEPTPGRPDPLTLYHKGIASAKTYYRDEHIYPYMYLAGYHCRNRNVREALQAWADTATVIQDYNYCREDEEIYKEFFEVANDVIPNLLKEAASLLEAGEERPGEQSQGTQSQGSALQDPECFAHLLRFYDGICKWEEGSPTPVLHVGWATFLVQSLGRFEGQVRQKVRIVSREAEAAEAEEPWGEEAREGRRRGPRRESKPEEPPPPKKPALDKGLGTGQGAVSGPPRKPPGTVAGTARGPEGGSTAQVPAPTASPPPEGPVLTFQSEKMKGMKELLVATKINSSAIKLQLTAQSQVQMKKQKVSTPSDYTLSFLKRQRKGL

hERG, sequence (Q12809 whole entry): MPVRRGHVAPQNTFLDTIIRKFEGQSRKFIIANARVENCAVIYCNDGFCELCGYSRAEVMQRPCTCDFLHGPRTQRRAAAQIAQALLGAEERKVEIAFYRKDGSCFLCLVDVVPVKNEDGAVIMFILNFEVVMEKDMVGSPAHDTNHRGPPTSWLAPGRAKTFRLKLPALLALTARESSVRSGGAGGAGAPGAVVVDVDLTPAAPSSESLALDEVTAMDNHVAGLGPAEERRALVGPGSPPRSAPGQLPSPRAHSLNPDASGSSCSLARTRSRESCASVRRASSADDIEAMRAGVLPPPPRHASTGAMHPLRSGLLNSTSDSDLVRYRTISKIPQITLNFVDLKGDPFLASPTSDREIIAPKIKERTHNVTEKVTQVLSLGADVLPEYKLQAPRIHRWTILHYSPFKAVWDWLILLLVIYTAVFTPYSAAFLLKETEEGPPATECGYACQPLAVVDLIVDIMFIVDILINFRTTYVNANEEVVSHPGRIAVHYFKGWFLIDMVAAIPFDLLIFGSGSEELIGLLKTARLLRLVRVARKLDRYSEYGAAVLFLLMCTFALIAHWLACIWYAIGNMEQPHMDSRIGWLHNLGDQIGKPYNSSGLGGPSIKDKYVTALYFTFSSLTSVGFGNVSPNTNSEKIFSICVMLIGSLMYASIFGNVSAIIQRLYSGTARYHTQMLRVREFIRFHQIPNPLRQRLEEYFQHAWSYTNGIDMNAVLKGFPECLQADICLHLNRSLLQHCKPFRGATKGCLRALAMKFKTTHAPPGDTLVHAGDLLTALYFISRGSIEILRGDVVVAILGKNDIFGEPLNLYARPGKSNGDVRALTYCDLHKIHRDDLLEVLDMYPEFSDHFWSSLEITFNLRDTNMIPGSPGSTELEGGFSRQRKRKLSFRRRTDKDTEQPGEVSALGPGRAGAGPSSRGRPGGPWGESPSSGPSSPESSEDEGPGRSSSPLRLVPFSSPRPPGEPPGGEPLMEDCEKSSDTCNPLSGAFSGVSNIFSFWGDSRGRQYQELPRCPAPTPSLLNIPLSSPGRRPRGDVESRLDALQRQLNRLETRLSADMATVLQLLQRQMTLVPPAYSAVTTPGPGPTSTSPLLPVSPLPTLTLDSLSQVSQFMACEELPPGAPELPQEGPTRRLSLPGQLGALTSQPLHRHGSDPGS

SMILES	hERG % Remaining 10 μM [1]	hERG % Remaining 30 μM [1]	EC50 [2] [nM]	Ki [2] [nM]	IC50 [1] [nM]
CCN(C(=O)c1cc(F)ccc1Oc1cncnc1N1CC2(CCN(C[C@@H]3CC[C@@H](NS(=O)(=O)c4ccccn4)CO3)CC2)C1)C(C)C [Compound 58, N-ethyl-5-fluoro-N-isopropyl-2-((4-(7-(((2S,5R)-5-(pyridine-2-sulfonamido)tetrahydro-2H-pyran-2-yl)methyl)-2,7-diazaspiro[3.5]nonan-2-yl)pyrimidin-5-yl)oxy)benzamide]	+++ (“+++” means ≥66%)	++ (“++” means ≥33% and <66%)	< 50	< 1	
CCN(C(=O)c1cc(F)ccc1Oc1cncnc1N1CC2(CCN(C[C@@H]3CC[C@@H](NS(=O)(=O)c4ccccc4Cl)CO3)CC2)C1)C(C)C [Compound 59, 2-((4-(7-(((2S,5R)-5-((2-Chlorophenyl)sulfonamido)tetrahydro-2H-pyran-2-yl)methyl)-2,7-diazaspiro[3.5]nonan-2-yl)pyrimidin-5-yl)oxy)-N-ethyl-5-fluoro-N-isopropylbenzamide]	+ (“+” means <33%)	+ (“+” means <33%)	< 50	< 1	
CCN(C(=O)c1cc(F)ccc1Oc1cncnc1N1CC2(CCN(C[C@@H]3CC[C@@H](NS(=O)(=O)c4ccc(OC)cc4)CO3)CC2)C1)C(C)C [Compound 62, N-Ethyl-5-fluoro-N-isopropyl-2-((4-(7-(((2S,5R)-5-((4-methoxyphenyl)sulfonamido)tetrahydro-2H-pyran-2-yl)methyl)-2,7-diazaspiro[3.5]nonan-2-yl)pyrimidin-5-yl)oxy)benzamide]	+ (“+” means <33%)	+ (“+” means <33%)	< 50	< 1	
CCN(C(=O)c1cc(F)ccc1Oc1cncnc1N1CC2(CCN(C[C@@H]3CC[C@@H](NS(=O)(=O)c4cccnc4)CO3)CC2)C1)C(C)C [Compound 63, N-Ethyl-5-fluoro-N-isopropyl-2-((4-(7-(((2S,5R)-5-(pyridine-3-sulfonamido)tetrahydro-2H-pyran-2-yl)methyl)-2,7-diazaspiro[3.5]nonan-2-yl)pyrimidin-5-yl)oxy)benzamide]	+++ (“+++” means ≥66%)	++ (“++” means ≥33% and <66%)	< 50	< 1	
CCN(C(=O)c1cc(F)ccc1Oc1cncnc1N1CC2(CCN(C[C@@H]3CC[C@@H](NS(=O)(=O)N4CCOCC4)CO3)CC2)C1)C(C)C [Compound 64, N-Ethyl-5-fluoro-N-isopropyl-2-((4-(7-(((2S,5R)-5-(morpholine-4-sulfonamido)tetrahydro-2H-pyran-2-yl)methyl)-2,7-diazaspiro[3.5]nonan-2-yl)pyrimidin-5-yl)oxy)benzamide]	+++ (“+++” means ≥66%)	++ (“++” means ≥33% and <66%)	< 50	< 1	
CCN(C(=O)c1cc(F)ccc1Oc1cncnc1N1CC2(CCN(C[C@@H]3CC[C@@H](NS(=O)(=O)c4ccccc4OC)CO3)CC2)C1)C(C)C [Compound 65, N-Ethyl-5-fluoro-N-isopropyl-2-((4-(7-(((2S,5R)-5-((2-methoxyphenyl)sulfonamido)tetrahydro-2H-pyran-2-yl)methyl)-2,7-diazaspiro[3.5]nonan-2-yl)pyrimidin-5-yl)oxy)benzamide]	++ (“++” means ≥33% and <66%)	+ (“+” means <33%)	< 50	< 1	
CCN(C(=O)c1cc(F)ccc1Oc1cncnc1N1CC2(CCN(C[C@@H]3CC[C@@H](NS(=O)(=O)c4cccc(OC)c4)CO3)CC2)C1)C(C)C [Compound 66, N-Ethyl-5-fluoro-N-isopropyl-2-((4-(7-(((2S,5R)-5-((3-methoxyphenyl)sulfonamido)tetrahydro-2H-pyran-2-yl)methyl)-2,7-diazaspiro[3.5]nonan-2-yl)pyrimidin-5-yl)oxy)benzamide]	+ (“+” means <33%)	+ (“+” means <33%)	< 50	< 1	
CCN(C(=O)c1cc(F)ccc1Oc1cncnc1N1CC2(CCN(C[C@@H]3CC[C@@H](NS(=O)(=O)c4cnn(C)c4)CO3)CC2)C1)C(C)C [Compound 68, N-Ethyl-5-fluoro-N-isopropyl-2-((4-(7-(((2S,5R)-5-((1-methyl-1H-pyrazole)-4-sulfonamido)tetrahydro-2H-pyran-2-yl)methyl)-2,7-diazaspiro[3.5]nonan-2-yl)pyrimidin-5-yl)oxy)benzamide]	+++ (“+++” means ≥66%)	+++ (“+++” means ≥66%)	< 50	< 1	≥ 50000
CCN(C(=O)c1cc(F)ccc1Oc1cncnc1N1CC2(CCN(C[C@@H]3CC[C@@H](NS(=O)(=O)N4CCC4)CO3)CC2)C1)C(C)C [Compound 69, 2-((4-(7-(((2S,5R)-5-(Azetidine-1-sulfonamido)tetrahydro-2H-pyran-2-yl)methyl)-2,7-diazaspiro[3.5]nonan-2-yl)pyrimidin-5-yl)oxy)-N-ethyl-5-fluoro-N-isopropylbenzamide]	+++ (“+++” means ≥66%)	++ (“++” means ≥33% and <66%)	< 50	< 1	25000 to 50000
CCN(C(=O)c1cc(F)ccc1Oc1cncnc1N1CC2(CCN(C[C@@H]3CC[C@@H](NS(=O)(=O)c4csc(C)n4)CO3)CC2)C1)C(C)C [Compound 71, N-Ethyl-5-fluoro-N-isopropyl-2-((4-(7-(((2S,5R)-5-((2-methylthiazole)-4-sulfonamido)tetrahydro-2H-pyran-2-yl)methyl)-2,7-diazaspiro[3.5]nonan-2-yl)pyrimidin-5-yl)oxy)benzamide]	+++ (“+++” means ≥66%)	++ (“++” means ≥33% and <66%)	< 50	< 1	
CCN(C(=O)c1cc(F)ccc1Oc1cncnc1N1CC2(CCN(C[C@@H]3CC[C@@H](NS(=O)(=O)c4cnc(C)o4)CO3)CC2)C1)C(C)C [Compound 72, N-Ethyl-5-fluoro-N-isopropyl-2-((4-(7-(((2S,5R)-5-((2-methyloxazole)-5-sulfonamido)tetrahydro-2H-pyran-2-yl)methyl)-2,7-diazaspiro[3.5]nonan-2-yl)pyrimidin-5-yl)oxy)benzamide]	++ (“++” means ≥33% and <66%)	+ (“+” means <33%)		< 1	
CCN(C(=O)c1cc(F)ccc1Oc1cncnc1N1CC2(CCN(C[C@@H]3CC[C@@H](NS(=O)(=O)c4c[nH]c(=O)cc4C)CO3)CC2)C1)C(C)C [Compound 75, N-Ethyl-5-fluoro-N-isopropyl-2-((4-(7-(((2S,5R)-5-((4-methyl-6-oxo-1,6-dihydropyridine)-3-sulfonamido)tetrahydro-2H-pyran-2-yl)methyl)-2,7-diazaspiro[3.5]nonan-2-yl)pyrimidin-5-yl)oxy)benzamide]		+++ (“+++” means ≥66%)		< 1	
CCN(C(=O)c1cc(F)ccc1Oc1cncnc1N1CC2(CCN(C[C@@H]3CC[C@@H](NS(=O)(=O)NC)CO3)CC2)C1)C(C)C [Compound 76, N-Ethyl-5-fluoro-N-isopropyl-2-((4-(7-(((2S,5R)-5-((N-methylsulfamoyl)amino)tetrahydro-2H-pyran-2-yl)methyl)-2,7-diazaspiro[3.5]nonan-2-yl)pyrimidin-5-yl)oxy)benzamide]	+++ (“+++” means ≥66%)	+++ (“+++” means ≥66%)	< 50	< 1	
CC(C)N(C(=O)c1cc(F)ccc1Oc1cncnc1N1CC2(CCN(C[C@@H]3CC[C@@H](NS(=O)(=O)N4CCOCC4)CO3)CC2)C1)C(C)C [Compound 78, 5-Fluoro-N,N-diisopropyl-2-((4-(7-(((2S,5R)-5-(morpholine-4-sulfonamido)tetrahydro-2H-pyran-2-yl)methyl)-2,7-diazaspiro[3.5]nonan-2-yl)pyrimidin-5-yl)oxy)benzamide]	+++ (“+++” means ≥66%)	+++ (“+++” means ≥66%)	< 50	< 1	
Cc1ncc(S(=O)(=O)N[C@@H]2CC[C@@H](CN3CCC4(CC3)CN(c3ncncc3Oc3ccc(F)cc3C(=O)N(C(C)C)C(C)C)C4)OC2)o1 [Compound 80, 5-Fluoro-N,N-diisopropyl-2-((4-(7-(((2S,5R)-5-((2-methyloxazole)-5-sulfonamido)tetrahydro-2H-pyran-2-yl)methyl)-2,7-diazaspiro[3.5]nonan-2-yl)pyrimidin-5-yl)oxy)benzamide]	++ (“++” means ≥33% and <66%)	+ (“+” means <33%)		< 1	
Cc1nc(S(=O)(=O)N[C@@H]2CC[C@@H](CN3CCC4(CC3)CN(c3ncncc3Oc3ccc(F)cc3C(=O)N(C(C)C)C(C)C)C4)OC2)cs1 [Compound 81, 5-Fluoro-N,N-diisopropyl-2-((4-(7-(((2S,5R)-5-((2-methylthiazole)-4-sulfonamido)tetrahydro-2H-pyran-2-yl)methyl)-2,7-diazaspiro[3.5]nonan-2-yl)pyrimidin-5-yl)oxy)benzamide]	++ (“++” means ≥33% and <66%)	++ (“++” means ≥33% and <66%)		< 1	
CC(C)N(C(=O)c1cc(F)ccc1Oc1cncnc1N1CC2(CCN(C[C@@H]3CC[C@@H](NS(=O)(=O)c4cnn(C)c4Cl)CO3)CC2)C1)C(C)C [Compound 82, 2-((4-(7-(((2S,5R)-5-((5-Chloro-1-methyl-1H-pyrazole)-4-sulfonamido)tetrahydro-2H-pyran-2-yl)methyl)-2,7-diazaspiro[3.5]nonan-2-yl)pyrimidin-5-yl)oxy)-5-fluoro-N,N-diisopropylbenzamide]	++ (“++” means ≥33% and <66%)	+ (“+” means <33%)		< 1	
